Assay results reported in US8088820B2, “Substituted tetracycline compounds for the treatment of malaria” (Paratek Pharmaceuticals, Inc., priority 2001, dated 2012).

Experiment: in vitro
Details: African green monkey (COS-1); Chinese hamster (CHO)

Row | IC50 at 24 h | Structure (SMILES)
1 | > 25 µg/mL | C[C@H]1c2cccc(O)c2C(=O)C2=C(O)[C@]3(O)C(=O)C(C(N)=O)=C(O)[C@@H](N(C)C)[C@@H]3[C@@H](O)[C@@H]21 [doxycycline]
2 | > 25 µg/mL | CN(C)c1ccc(O)c2c1C[C@H]1C[C@H]3[C@H](N(C)C)C(O)=C(C(N)=O)C(=O)[C@@]3(O)C(O)=C1C2=O [minocycline]
